# In ChEMBL document CHEMBL3351326, “Discovery of substituted 6-pheny-3H-pyridazin-3-one derivatives as novel c-Met kinase inhibitors” (Bioorg Med Chem Lett, 2014):
# pIC50: −log10 of the molar value.
# Experiments:
# [1] = Cytotoxicity against human U87MG cells after 72 hrs by WST8 assay; type: functional, cell-based, U-87MG ATCC; conditions: U-87 MG
# cells = conditions: Homo sapiens, Hs746T, 72 h
# Description: Cytotoxicity against human Hs 746T cells after 72 hrs by WST8 assay
# NCI-H1993 = test: Cytotoxicity against human NCI-H1993 cells after 72 hrs by WST8 assay; conditions: NCI-H1993, 72 h
# [2] = Cytotoxicity against human NCI-H3122 cells after 72 hrs by WST8 assay; conditions: NCI-H3122, 72 h
pIC50 (cells),Compound,pIC50 [1],pIC50 (NCI-H1993),pIC50 [2]
9.15,Cn1cc(-c2cnc(N3CCO[C@H](Cn4nc(-c5cccc(C#N)c5)ccc4=O)C3)nc2)cn1,< 6.00,8.00,< 6.00
8.47,N#Cc1cccc(-c2ccc(=O)n(C[C@@H]3CN(c4ncc(-c5cnn(CC6CCN(CCO)CC6)c5)cn4)CCO3)n2)c1,< 5.00,5.68,< 5.00
5.15,N#Cc1cccc(-c2ccc(=O)n(C[C@@H]3CN(c4ncc(-c5ccnc(F)c5)cn4)CCO3)n2)c1,< 5.00,5.13,< 5.00
5.85,N#Cc1cccc(-c2ccc(=O)n(C[C@@H]3CN(c4ncc(-c5ccc(OCCN6CCOCC6)c(Cl)c5)cn4)CCO3)n2)c1,5.85,5.92,< 5.00
6.37,CN1CCC(COc2cnc(N3CCO[C@H](Cn4nc(-c5cccc(C#N)c5)ccc4=O)C3)nc2)CC1,< 5.00,5.62,< 5.00
6.74,N#Cc1cccc(-c2ccc(=O)n(C[C@@H]3CN(c4ncc(-c5cnn(CCO)c5)cn4)CCO3)n2)c1,< 5.00,5.82,< 5.00
6.19,CN1CCN(c2ccc(-c3cnc(N4CCO[C@H](Cn5nc(-c6cccc(C#N)c6)ccc5=O)C4)nc3)cn2)CC1,5.80,5.89,5.85
8.92,N#Cc1cccc(-c2ccc(=O)n(C[C@@H]3CN(c4ncc(-c5cnn(C6CCNCC6)c5)cn4)CCO3)n2)c1,< 5.00,6.96,< 5.00
6.13,N#Cc1cccc(-c2ccc(=O)n(C[C@@H]3CN(c4ncc(-c5ccc(OCCN6CCOCC6)nc5)cn4)CCO3)n2)c1,,5.43,5.01
6.39,N#Cc1cccc(-c2ccc(=O)n(C[C@@H]3CN(c4ncc(-c5ccc(OCCN6CCOCC6)cc5)cn4)CCO3)n2)c1,5.47,5.74,< 5.00
6.68,N#Cc1cccc(-c2ccc(=O)n(C[C@@H]3CN(c4ncc(C5=CCN(CCO)CC5)cn4)CCO3)n2)c1,< 5.00,5.60,< 5.00
5.92,CN1CC=C(c2cnc(N3CCO[C@H](Cn4nc(-c5cccc(C#N)c5)ccc4=O)C3)nc2)CC1,< 5.00,5.39,< 5.00

# Second part, the molecule before the results:
Compound,pIC50 (cells),pIC50 [1],pIC50 (NCI-H1993),pIC50 [2]
N#Cc1cccc(-c2ccc(=O)n(C[C@@H]3CN(c4ncc(-c5cnn(CCOC6CCCCO6)c5)cn4)CCO3)n2)c1 (some centres undefined),6.34,< 5.00,5.59,< 5.00
O=c1ccc(-c2cccc(C(F)(F)F)c2)nn1C[C@@H]1CN(c2ncc(-c3cnn(C4CCNCC4)c3)cn2)CCO1,7.08,5.60,5.89,5.85
CN1CCC(n2cc(-c3cnc(N4CCO[C@H](Cn5nc(-c6ccc(F)c(Cl)c6)ccc5=O)C4)nc3)cn2)CC1,7.85,5.82,5.92,5.85
Cn1cc(-c2cnc(N3CCO[C@H](Cn4nc(-c5ccc(OCc6ccccc6)cc5)ccc4=O)C3)nc2)cn1,5.52,5.12,5.39,< 5.00
N#Cc1cccc(-c2ccc(=O)n(C[C@@H]3CN(c4ncc(C5=CCNCC5)cn4)CCO3)n2)c1,6.13,5.01,5.42,< 5.00
O=c1ccc(-c2ccc(F)c(Cl)c2)nn1C[C@@H]1CN(c2ncc(-c3cnn(C4CCNCC4)c3)cn2)CCO1,7.15,5.92,6.10,5.77
O=c1ccc(-c2cc(F)cc(F)c2)nn1C[C@@H]1CN(c2ncc(-c3cnn(C4CCNCC4)c3)cn2)CCO1,6.35,5.49,5.80,5.72
O=c1ccc(-c2cccc(F)c2)nn1C[C@@H]1CN(c2ncc(-c3cnn(C4CCN(CCO)CC4)c3)cn2)CCO1,6.34,5.47,5.49,5.48
O=c1ccc(-c2cc(F)c(F)c(F)c2)nn1C[C@@H]1CN(c2ncc(-c3cnn(C4CCN(CCO)CC4)c3)cn2)CCO1,6.72,5.39,,< 5.00
O=c1ccc(-c2cccc(Cl)c2)nn1C[C@@H]1CN(c2ncc(-c3cnn(C4CCNCC4)c3)cn2)CCO1,6.12,5.00,5.47,< 5.00
CN1CCC(n2cc(-c3cnc(N4CCO[C@H](Cn5nc(-c6cc(F)c(F)c(F)c6)ccc5=O)C4)nc3)cn2)CC1,6.32,5.04,5.44,5.12
N#Cc1cccc(-c2ccc(=O)n(C[C@@H]3CN(c4ncc(-c5cnn(C6CCN(C7CCOCC7)CC6)c5)cn4)CCO3)n2)c1,7.89,< 5.00,6.64,< 5.00
CN1CCC(n2cc(-c3cnc(N4CCO[C@H](Cn5nc(-c6ccc(F)c(F)c6)ccc5=O)C4)nc3)cn2)CC1,6.03,< 5.00,5.24,< 5.00
O=c1ccc(-c2cccc(F)c2)nn1C[C@@H]1CN(c2ncc(-c3cnn(C4CCNCC4)c3)cn2)CCO1,6.66,5.31,5.46,5.12
CN1CCC(n2cc(-c3cnc(N4CCO[C@H](Cn5nc(-c6cccc(F)c6)ccc5=O)C4)nc3)cn2)CC1,6.34,5.47,5.49,5.48
O=c1ccc(-c2ccc(F)cc2)nn1C[C@@H]1CN(c2ncc(-c3cnn(C4CCN(CCO)CC4)c3)cn2)CCO1,6.55,< 5.00,5.42,< 5.00
O=c1ccc(-c2cc(F)c(F)c(F)c2)nn1C[C@@H]1CN(c2ncc(-c3cnn(C4CCNCC4)c3)cn2)CCO1,6.64,5.82,5.92,5.82
